Reference: patent US11116748B2, “Compositions and methods for reducing weight gain” (THE MEDICAL COLLEGE OF WISCONSIN, INC., priority 2018, dated 2021)

Key:
C57bl/6J female mice [1] = experiment: Supplementation with L. reuteri (daily gavage) with or without risperidone in drinking water: body mass and visceral fat pads; format: in vivo; details: risperidone-treated mice, 64 days, relative to risperidone plus L. reuteri lacking reutericyclin production; Wilcoxon p<0.05
C57bl/6J female mice [2] = experiment: Risperidone treatment for 60 days, weight gain in mice; format: in vivo; details: risperidone for 60 days, vs control
Method: Shotgun metagenomic sequencing data (MiSeq, 2×250, high yield) from stool DNA were analyzed on the Anvi'o visualization platform. Bacterial genomes were refined to either genus or species level and ordered as slices within a ring by gene similarity (hierarchical clustering with a Hidden Markov Model).

gut microbiome = details: risperidone; cited from earlier work

Row | SMILES | weight gain (body mass increase) (C57bl/6J female mice [1]) | weight gain (C57bl/6J female mice [2]) | growth of organisms under anaerobic conditions (gut microbiome)
1 | CCCCCCC/C=C/C(=O)N1C(O)=C(C(C)=O)C(=O)[C@H]1CC(C)C [reutericyclin, (5R)-1-(2-decenoyl)-2-hydroxy-3-acetyl-5-isobutyl-Δ2-pyrroline-4-one] | prevents weight gain | – | –
2 | Cc1nc2n(c(=O)c1CCN1CCC(c3noc4cc(F)ccc34)CC1)CCCC2 [risperidone] | – | statistically significant weight gain | selectively suppressed growth of organisms under anaerobic conditions
